Source: US4160026A (priority 1976, dated 1979)

Tests used:
[1] = tested on: cell-mediated immunity; assay: Cell-mediated immunity, delayed hypersensitivity (picryl chloride) in Sarcoma 180-inoculated mice; format: in vivo, ICR-JCL strain mice; conditions: 75 mg/kg
Method: The tests were carried out by the following procedure: groups of ICR-JCL strain mice (six male mice per group, average body weight 31.9±3 g.) were inoculated with the ascites tumor "Sarcoma 180" (10^6 cells). 24 Hours after the inoculation of the tumor cells, each of the drug samples to be tested was subcutaneously administered and a known anti-tumor agent (cyclophosphamide) was intraperitoneally administered to the inoculated mice. Two days after the inoculation, an ethanolic solution of 5% picryl chloride was applied onto the hair-shaved abdomen of the mice to establish the sensitization. Subsequently, each drug sample under test was subcutaneously administered once a day for the successive four days. 4 Days after the inoculation, cyclophosphamide was again administered. Nine days after the inoculation, a solution of 1% picryl chloride in olive oil was challenged onto the two sides of both ears of the mice to establish the secondary sensitization. 24 Hours after the secondary sensitization, the degree (%) of increase in thickness of the ears was calculated for the test mice. The extent of the swelling which serves as a measure of stimulating cell-mediated immunity involved can be evaluated from the percentage increase in the ear thickness.

[2] = tested on: Sarcoma 180; assay: Solid tumor of Sarcoma 180, treatment after inoculation; format: in vivo, ICR-strain mice; conditions: 2 mg/kg, i.p., 5 days after inoculation
Method: In a separate experiment, male ICR-strain mice (five in each group with an average body weight of 20±2 g) were inoculated in the flank with 7×10^6 live tumor cells of Sarcoma 180 in 0.05 ml. After 24 hours, each group of mice was treated by intraperitoneal injection of 0.1 ml. of saline or sample dissolved in saline for 5 consecutive days. Seven days after the inoculation, all mice were sacrificed and the primary subcutaneous tumor excised and weighed.
In the above table, degree (%) of inhibition to the growth of tumor was calculated according to the following equation: [formula]

[3] = Solubility; format: physicochemical
[4] = tested on: various bacteria; assay: Antibacterial activity with combined use of maltose or maltodextrin; format: cell-based; conditions: under the above-mentioned testing conditions
Method: These paper discs were placed on an upper plate layers of the known mycin-assay incubation medium comprising 0.5% peptone, 0.3% meat extract and 1.5% agar (pH 6) which contained the test microorganism to be incubated therein and which was laid over the lower layer of agar medium in the assaying dish. The incubation was made at a temperature of 37° C. overnight, and subsequently the diameter of the inhibition zones formed around the paper discs was measured. […] These tests were repeated in the same manner as above but with additional incorporation of 1.25 mg/cc of maltotriose into the upper plate layer of the mycin-assay incubation medium.

Row | Solubility ([3]; in acetone) | Solubility ([3]; in ethanol) | Solubility ([3]; in methanol) | Solubility ([3]; in water) | Compound | further results
1 |  |  |  |  | O=P1(N(CCCl)CCCl)NCCCO1 (stereo not shown) [Cyclophosphamide, N,N-bis (2-chloroethyl)tetrahydro-2H-1,3,2-oxazophosphorin-2-amine-2-oxide] | Degree of increase in ear thickness [1]: 4.0 ± 2.60 ×10^-3 cm; percentage increase ([1]; untreated = 100.0): 51.9%
2 |  |  |  |  | CO[C@@]12[C@H](COC(N)=O)C3=C(C(=O)C(C)=C(N)C3=O)N1C[C@@H]1N[C@@H]12 [Mitomycin C, mitomycin C] | Degree (%) of inhibition to tumor growth [2]: 45%; Tumor weight [2]: 0.43 g
3 | not soluble | not soluble | sparingly soluble | readily soluble | OC[C@H]1O[C@H](O[C@H]2[C@H](O)[C@@H](O)[C@@H](O[C@H]3[C@H](O)[C@@H](O)[C@@H](O[C@H]4[C@H](O)[C@@H](O)[C@@H](O[C@H]5[C@H](O)[C@@H](O)[C@@H](O[C@H]6[C@H](O)[C@@H](O)C(O)O[C@@H]6CO)O[C@@H]5CO)O[C@@H]4CO)O[C@@H]3CO)O[C@@H]2CO)[C@H](O)[C@@H](O)[C@@H]1O (stereo partly shown) [maltohexaose] | 
4 | not soluble | not soluble | sparingly soluble | readily soluble | OC[C@H]1O[C@H](O[C@H]2[C@H](O)[C@@H](O)[C@@H](O[C@H]3[C@H](O)[C@@H](O)[C@@H](O[C@H]4[C@H](O)[C@@H](O)[C@@H](O[C@H]5[C@H](O)[C@@H](O)C(O)O[C@@H]5CO)O[C@@H]4CO)O[C@@H]3CO)O[C@@H]2CO)[C@H](O)[C@@H](O)[C@@H]1O (stereo partly shown) [maltopentaose] | 
5 |  |  |  |  | OC[C@H]1O[C@H](O[C@H]2[C@H](O)[C@@H](O)[C@@H](O[C@H]3[C@H](O)[C@@H](O)C(O)O[C@@H]3CO)O[C@@H]2CO)[C@H](O)[C@@H](O)[C@@H]1O (stereo partly shown) [maltotriose] | Antibacterial activity of maltodextrins alone [4]: do not exhibit any antibacterial activity
